Experimental data from ChEMBL document CHEMBL5244209, “Antiplasmodial and antimalarial activities of quinolone derivatives: An overview” (Eur J Med Chem, 2018).
Values after ≈ are worked out from the molar mass of the structure shown.

Experiments:
Plasmodium berghei = assay: Antiplasmodial activity against liver stage Plasmodium berghei ANKA infected in human HepG2 cells measured after 44 hrs; type: functional, organism-based; settings: HepG2, 44 h
Plasmodium falciparum [1] = assay: Antiplasmodial activity against Plasmodium falciparum Dd2 infected in human Erythrocyte measured after 72 hrs by SYBR green fluorescence dye based microplate reader analysis; type: functional, organism-based
Plasmodium falciparum [2] = assay: Antiplasmodial activity against Plasmodium falciparum D6 infected in human Erythrocyte measured after 72 hrs by SYBR green fluorescence dye based microplate reader analysis; type: functional, organism-based
Plasmodium falciparum [3] = assay: Antiplasmodial activity against Plasmodium falciparum Tm90-C2B infected in human Erythrocyte measured after 72 hrs by SYBR green fluorescence dye based microplate reader analysis; type: functional, organism-based
Plasmodium falciparum [4] = assay: Antiplasmodial activity against chloroquine-sensitive Plasmodium falciparum 3D7 infected in human erythrocyte incubated for 72 hrs by SYBR green I staining based fluorescence assay; type: functional, organism-based; settings: 3D7, Erythrocyte
Plasmodium yoelii yoelii = assay: Antimalarial activity against hepatic stage Plasmodium yoelii yoelii 265 BY for 48 hrs with media renew every 24 hrs; type: functional, organism-based
Plasmodium falciparum [5] = assay: Antimalarial activity against blood stage chloroquine-sensitive Plasmodium falciparum NF54-R infected in erythrocytes assessed as reduction in parasite growth preincubated for 72 hrs followed by addition of [3H]Hypoxanthine and measured after 24 hrs by liquid scintillation counting method; type: functional, organism-based; settings: Erythrocyte
Plasmodium falciparum [6] = assay: Antimalarial activity against blood stage chloroquine-sensitive Plasmodium falciparum 3D7 infected in erythrocytes assessed as reduction in parasite growth preincubated for 72 hrs followed by addition of [3H]Hypoxanthine and measured after 24 hrs by liquid scintillation counting method; type: functional, organism-based; settings: 3D7, Erythrocyte
Plasmodium falciparum [7] = assay: Antimalarial activity against Antimalarial activity against chloroquine-sensitive Plasmodium falciparum FCR-3; type: functional, organism-based
Plasmodium falciparum [8] = assay: Antimalarial activity against chloroquine-sensitive Plasmodium falciparum 3D7; type: functional, organism-based
FM3A = assay: Cytotoxicity against mouse FM3A cells; type: functional, cell-based
Plasmodium falciparum [9] = assay: Antimalarial activity against chloroquine-sensitive Plasmodium falciparum FCC1 measured after 48 hrs; type: functional, organism-based; settings: FCC1, 48 h
Plasmodium falciparum [10] = assay: Antimalarial activity against chloroquine-resistant Plasmodium falciparum VNS measured after 48 hrs; type: functional, organism-based

Row | SMILES | IC50 (Plasmodium falciparum [4]) [nM] | IC50 (Plasmodium yoelii yoelii) [µg/mL] | IC50 (Plasmodium falciparum [5]) [µg/mL] | IC50 (Plasmodium falciparum [6]) [µg/mL] | also measured
1 | COc1cc2[nH]c(C)c(-c3ccccc3C)c(=O)c2cc1Cl |  |  |  |  | IC50 (Plasmodium berghei): 2.82 nM
2 | CCCCCCCc1c(C)[nH]c2cc(O)ccc2c1=O |  |  |  |  | IC50 (Plasmodium falciparum [1]): 805 nM; IC50 (Plasmodium falciparum [2]): 759 nM; IC50 (Plasmodium falciparum [3]): 824 nM
3 | C=CC1CC2CCC1CC2[C@H](OC(=O)[C@@H](NC(=O)C1=CN(C2CC2)C2C=C(N3CCN(CC)CC3)C(F)=CC2C1=O)C(C)CC)c1cccc2ccc(OC)cc12 (some centres not stated) | 207 |  |  |  | 
4 | C=CC1CC2CCC1CC2[C@H](OC(=O)[C@@H](NC(=O)C1=CN(CC)C2C=C3OCOC3=CC2C1=O)C(C)C)c1cccc2ccc(OC)cc12 (some centres not stated) | 183 |  |  |  | 
5 | C=CC1CC2CCC1CC2[C@H](OC(=O)CNC(=O)C1=CN(CC)C2C=C(C)C=CC2C1=O)c1cccc2ccc(OC)cc12 (some centres not stated) | 46 |  |  |  | 
6 | CN1CCN(c2c(F)cc3c(=O)c(C(=O)O)cn4c3c2SCC4)CC1 [RUFLOXACIN] |  | 47.8 (≈ 132 µM) | 30.1 (≈ 82.8 µM) | 81.9 (≈ 225 µM) | 
7 | CCn1nc(C(=O)O)c(=O)c2cc3c(cc21)OCO3 [CINOXACIN] |  | 36.3 (≈ 138 µM) | 28.5 (≈ 109 µM) | 118 (≈ 451 µM) | 
8 | Cn1cc(C(=O)N/N=C/c2cccnc2)c(=O)c2cc(F)ccc21 |  |  |  |  | IC50 (Plasmodium falciparum [7]): > 100000 nM
9 | Cc1c(F)c(N2CCNC(C)C2)cc2c1c(=O)c(C(=O)O)cn2C1CC1 (configuration not stated) [GREPAFLOXACIN] |  | 4.4 (≈ 12.2 µM) | 3.1 (≈ 8.63 µM) | 4.5 (≈ 12.5 µM) | 
10 | CCCCCCCc1c(C)[nH]c2cc(F)cc(F)c2c1=O |  |  |  |  | IC50 (Plasmodium falciparum [1]): 1 nM; IC50 (Plasmodium falciparum [2]): 0.1 nM; IC50 (Plasmodium falciparum [3]): 81 nM
11 | O=C1C(O)=C([C@H]2CC[C@H](c3ccc(Cl)cc3)CC2)C(=O)c2ccccc21 [ATOVAQUONE] |  |  |  |  | IC50 (Plasmodium falciparum [1]): 0.5 nM; IC50 (Plasmodium falciparum [2]): 0.3 nM; IC50 (Plasmodium falciparum [3]): 5090 nM
12 | C=CC1CC2CCC1CC2[C@H](OC(=O)[C@H](Cc1ccccc1)NC(=O)C1=CN(CC)C2C=C3OCOC3=CC2C1=O)c1cccc2ccc(OC)cc12 (some centres not stated) | 115 |  |  |  | 
13 | NC1CCN(c2c(F)cc3c(=O)c(C(=O)O)cn(C4CC4)c3c2Cl)C1 (configuration not stated) [CLINAFLOXACIN] |  | 90.2 (≈ 247 µM) | 3.3 (≈ 9.02 µM) | 13.7 (≈ 37.5 µM) | 
14 | C=CC1CC2CCC1CC2[C@H](OC(=O)[C@H](C)NC(=O)C1=CN(CC)C2C=C3OCOC3=CC2C1=O)c1cccc2ccc(OC)cc12 (some centres not stated) | 29 |  |  |  | 
15 | CCOC(=O)/C(=C\n1cc(C(=O)O)c(=O)c2cc(F)ccc21)c1ccccn1 |  |  |  |  | IC50 (Plasmodium falciparum [8]): 21000 nM; IC50 (FM3A): > 100000 nM
16 | CCn1cc(C(=O)O)c(=O)c2ccc(C)nc21 [NALIDIXIC ACID] | > 20000 | > 100 | 59.1 (≈ 254 µM) | 117 (≈ 502 µM) | 
17 | CCOC(=O)/C(=C\n1cc(C(=O)OCC)c(=O)c2cc(F)ccc21)c1cccnc1 |  |  |  |  | IC50 (Plasmodium falciparum [8]): 26000 nM; IC50 (FM3A): 100000 nM
18 | CCCCCCCc1c(C)[nH]c2cc(Cl)ccc2c1=O |  |  |  |  | IC50 (Plasmodium falciparum [1]): 2 nM; IC50 (Plasmodium falciparum [2]): 6 nM; IC50 (Plasmodium falciparum [3]): 64 nM
19 | CCn1cc(C(=O)O)c(=O)c2cnc(N3CCCC3)nc21 [PIROMIDIC ACID] |  | 21.6 (≈ 74.9 µM) | 14.4 (≈ 49.9 µM) | 41.4 (≈ 144 µM) | 
20 | C[C@@H]1CN(c2c(F)c(N)c3c(=O)c(C(=O)O)cn(C4CC4)c3c2F)C[C@H](C)N1 [SPARFLOXACIN] |  | 53 (≈ 135 µM) | 73.9 (≈ 188 µM) | 143 (≈ 364 µM) | 
21 | COc1c(N2C[C@@H]3CCCN[C@@H]3C2)c(F)cc2c(=O)c(C(=O)O)cn(C3CC3)c12 [MOXIFLOXACIN] |  | > 100 | 18 (≈ 44.8 µM) | 44.8 (≈ 112 µM) | 
22 | COc1ccc2c(=O)c(CCCCCCCCCCC(F)(F)F)c(C)[nH]c2c1 |  |  |  |  | IC50 (Plasmodium falciparum [1]): 1 nM; IC50 (Plasmodium falciparum [2]): 1 nM; IC50 (Plasmodium falciparum [3]): 5 nM
23 | C=CC1CC2CCC1CC2[C@H](OC(=O)[C@@H](NC(=O)C1=CN(CC)C2C=C(C)C=CC2C1=O)C(C)C)c1cccc2ccc(OC)cc12 (some centres not stated) | 16 |  |  |  | 
24 | C[C@@H]1CC[C@H]2[C@@H](C)C(=O)O[C@@H]3O[C@@]4(C)CC[C@@H]1[C@]32OO4 [ARTEMISININ] |  |  |  |  | IC50 (Plasmodium falciparum [1]): 0.6 nM; IC50 (Plasmodium falciparum [2]): 0.81 nM; IC50 (Plasmodium falciparum [3]): 2.1 nM
25 | Cn1cc(C(=O)N/N=C/c2cccnc2)c(=O)c2cc(C(F)(F)F)ccc21 |  |  |  |  | IC50 (Plasmodium falciparum [7]): > 100000 nM
26 | CCn1cc(C(=O)O)c(=O)c2cc(F)c(N3CCNCC3)nc21 [ENOXACIN] |  | > 100 | 1.4 (≈ 4.37 µM) | 38.8 (≈ 121 µM) | IC50 (Plasmodium falciparum [9]): 800000 nM; IC50 (Plasmodium falciparum [10]): 990000 nM
27 | C[C@H]1COc2c(N3CCN(C)CC3)c(F)cc3c(=O)c(C(=O)O)cn1c23.C[C@H]1COc2c(N3CCN(C)CC3)c(F)cc3c(=O)c(C(=O)O)cn1c23.O [LEVOFLOXACIN] | > 20000 | > 100 | 40.3 | 112 | 
28 | CC1CN(c2cc3c(cc2F)c(=O)c(C(=O)O)cn3-c2ccc(F)cc2F)CCN1 (configuration not stated) [TEMAFLOXACIN] |  | 72.2 (≈ 173 µM) | 14.1 (≈ 33.8 µM) | 34.9 (≈ 83.6 µM) | 
29 | C=CC1CC2CCC1CC2[C@H](OC(=O)[C@H](C)NC(=O)C1=CN2C3C(=C(N4CCN(C)CC4)C(F)=CC3C1=O)OC[C@@H]2C)c1cccc2ccc(OC)cc12 (some centres not stated) | 33 |  |  |  | 
30 | CN1CCN(c2c(F)cc3c(=O)c(C(=O)O)cn(CCF)c3c2F)CC1 [FLEROXACIN] |  | > 100 | 12.9 (≈ 34.9 µM) | 34.6 (≈ 93.7 µM) | 
